Measured values: the NIST ThermoML archive (doi:10.1016/j.fluid.2019.01.025)
Numbers after ± are expanded uncertainties.

Test: xn = mol fraction of the nth substance listed
Settings: for viscosity / mass density: 91.2 kPa, Liquid; for viscosity: Concentric cylinders viscometry; for mass density: Vibrating tube method; for surface tension liquid-gas: Ring tensiometer

C[C@H](O)C(=O)O [(S)-2-hydroxypropanoic acid] + C[N+](C)(C)CCO.[Cl-]
x2 = 0.5
Settings	mass density [kg/m3]	surface tension liquid-gas [mN/m]	viscosity [mPa·s]
293 K	1150 ± 10	–	309 ± 12
298 K	1150 ± 10	42.87 ± 6.2	–
303 K	1150 ± 10	–	151 ± 6
308 K	1140 ± 10	–	–
313 K	1140 ± 10	–	101 ± 3
318 K	1140 ± 10	–	–
323 K	1130 ± 10	–	59 ± 2
333 K	–	–	35 ± 1
343 K	–	–	34 ± 1
353 K	–	–	25 ± 1

C[C@H](O)C(=O)O [(S)-2-hydroxypropanoic acid] + O=C[C@H](O)[C@@H](O)[C@H](O)[C@H](O)CO
x1 = 0.833
Settings	mass density [kg/m3]	surface tension liquid-gas [mN/m]	viscosity [mPa·s]
293 K	1280 ± 10	–	335 ± 14
298 K	1270 ± 10	37.42 ± 2	–
303 K	1270 ± 10	–	161 ± 8
308 K	1270 ± 10	–	–
313 K	1260 ± 10	–	79 ± 4
318 K	1260 ± 10	–	–
323 K	1250 ± 10	–	34 ± 2
333 K	–	–	18 ± 1
343 K	–	–	16 ± 1
353 K	–	–	13 ± 1
